We go through 6 compounds from US8828908B2, “Herbicidally active bicyclic 1,3-dione compounds” (Syngenta Limited, priority 2007, dated 2014).

By pest or weed control is commonly meant how far the test organism was held down. A lower pest or weed control goes with weak suppression.

Structures are written as SMILES.

What all share (format): in vivo
Assay [1] concerns Alopecurus myosuroides (ALOMY). In words: Example A pre-emergence herbicidal glasshouse test. To be noted: 312 h, Rate 250 g/ha, evaluated after 13 days, 100=total damage to plant, 0=no damage to plant. The procedure, abridged: (§1)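 Visual injury score (0 none to 100 total plant damage) recorded 13 days after spraying. Plants received an aqueous spray of compound in 50:50 acetone/water with 0.5% Tween 20, either one day after sowing or after eight days of cultivation, in pots kept under controlled glasshouse conditions.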

Assay [2] has as its system Amaranthus retroflexus (AMARE). The assay can be described thus: Example A pre-emergence herbicidal glasshouse test. To be noted: 312 h, Rate 250 g/ha, evaluated after 13 days, 100=total damage to plant, 0=no damage to plant. Put shortly:
as §1

Assay [3] concerns Avena fatua (AVEFA). The assay can be described thus: Example A pre-emergence herbicidal glasshouse test. To be noted: 312 h, Rate 250 g/ha, evaluated after 13 days, 100=total damage to plant, 0=no damage to plant. Put shortly:
as §1

Assay [4] has as its system Echinochloa crus-galli (ECHCG). In words: Example A pre-emergence herbicidal glasshouse test. To be noted: 312 h, Rate 250 g/ha, evaluated after 13 days, 100=total damage to plant, 0=no damage to plant. The procedure, abridged:
as §1

Assay [5] has as its system Setaria faberi (SETFA). In words: Example A pre-emergence herbicidal glasshouse test. Particulars: 312 h, Rate 250 g/ha, evaluated after 13 days, 100=total damage to plant, 0=no damage to plant. The procedure, abridged: as §1
Assay [6] concerns Alopecurus myosuroides (ALOMY). The assay can be described thus: Example A post-emergence herbicidal glasshouse test. Particulars: 312 h, evaluated after 13 days, 100=total damage to plant, 0=no damage. The procedure, abridged:
as §1

In assay [7] the test system is Amaranthus retroflexus (AMARE). The assay is described as above. Particulars: 312 h, evaluated after 13 days, 100=total damage to plant, 0=no damage. The procedure, abridged:
as §1

Assay [8] concerns Avena fatua (AVEFA). The description is as above. To be noted: 312 h, evaluated after 13 days, 100=total damage to plant, 0=no damage. Put shortly:
as §1

Assay [9] concerns Echinochloa crus-galli (ECHCG). Described as above. To be noted: 312 h, evaluated after 13 days, 100=total damage to plant, 0=no damage. The procedure, abridged: as §1
In assay [10] the test system is Setaria faberi (SETFA). The description is as above. Particulars: 312 h, evaluated after 13 days, 100=total damage to plant, 0=no damage. The procedure, abridged: as §1
For assay [11], the system named is Alopecurus myosuroides (ALOMY). In words: Example B pre-emergence herbicidal greenhouse test. To be noted: 480 h, evaluated after 20 days, 100=total damage to plant, 0=no damage. Put shortly: (§2)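 Pots sown with test species were sprayed 1 day after sowing (pre-emergence) or at 10 days post-sowing (post-emergence) with the technical ingredient dissolved in acetone and diluted via emulsifier/solvent formulation. After 20 days (pre) or 15 days (post), effect was rated from 0 (no damage) to 100 (total damage).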

The test system of assay [12] is Avena fatua (AVEFA). The assay can be described thus: Example B pre-emergence herbicidal greenhouse test. Particulars: 480 h, evaluated after 20 days, 100=total damage to plant, 0=no damage. The procedure, abridged:
as §2

The test system of assay [13] is Digitaria sanguinalis (DIGSA). In words: Example B pre-emergence herbicidal greenhouse test. Particulars: 480 h, evaluated after 20 days, 100=total damage to plant, 0=no damage. The procedure, abridged: as §2
Assay [14] relates to Echinochloa crus-galli (ECHCG). The assay can be described thus: Example B pre-emergence herbicidal greenhouse test. Particulars: 480 h, evaluated after 20 days, 100=total damage to plant, 0=no damage. The procedure, abridged:
as §2

Assay [15] concerns Lolium perenne (LOLPE). The assay can be described thus: Example B pre-emergence herbicidal greenhouse test. To be noted: 480 h, evaluated after 20 days, 100=total damage to plant, 0=no damage. Put shortly: as §2
Assay [16] deals with Setaria faberi (SETFA). The assay can be described thus: Example B pre-emergence herbicidal greenhouse test. Particulars: 480 h, evaluated after 20 days, 100=total damage to plant, 0=no damage. The procedure, abridged:
as §2

Assay [17] deals with Alopecurus myosuroides (ALOMY). The assay can be described thus: Example B post-emergence herbicidal greenhouse test. Particulars: 360 h, evaluated after 15 days, 100=total damage to plant, 0=no damage. Put shortly:
as §2

The subject of assay [18] is Avena fatua (AVEFA). Described as above. To be noted: 360 h, evaluated after 15 days, 100=total damage to plant, 0=no damage. Put shortly: as §2
Assay [19] deals with Digitaria sanguinalis (DIGSA). The description is as above. Particulars: 360 h, evaluated after 15 days, 100=total damage to plant, 0=no damage. Put shortly:
as §2

Assay [20] has as its system Echinochloa crus-galli (ECHCG). Described as above. Particulars: 360 h, evaluated after 15 days, 100=total damage to plant, 0=no damage. Put shortly: as §2
In assay [21] the test system is Lolium perenne (LOLPE). The description is as above. To be noted: 360 h, evaluated after 15 days, 100=total damage to plant, 0=no damage. The procedure, abridged:
as §2

For assay [22], the system named is Setaria faberi (SETFA). Described as above. Particulars: 360 h, evaluated after 15 days, 100=total damage to plant, 0=no damage. The procedure, abridged:
as §2

Take `CCc1ccc(-c2ccc(Cl)cc2C)cc1C1=C(O)[C@H]2CC[C@H](C2)C1=O` (single isomer, unassigned) [Compound T33]: the pest or weed control at 250 g/ha in assay [1] worked out at 60%; in assay [2], 0%; in the assay on Avena fatua (AVEFA) [3] it was 20%; in [4], 90%; in the assay with Setaria faberi (SETFA) [5], 90%; in assay [6] it was 60%. The pest or weed control at 250 g/ha in assay [7] was found to be 0%; in the assay with Avena fatua (AVEFA) [8] it was 60%; in assay [9], 100%; in the assay on Setaria faberi (SETFA) [10], 100%; in assay [11] it was 60%; with Avena fatua (AVEFA) [12], 20%. Besides, the pest or weed control at 250 g/ha (in [13]; in assay [14]; in the assay with Lolium perenne (LOLPE) [15]; in the assay on Setaria faberi (SETFA) [16]) was 70% each time. In addition, the pest or weed control at 125 g/ha in [17] was determined as 60%; in the assay on Avena fatua (AVEFA) [18] it was 70%; in assay [19] it was 60%; in assay [20], 100%; in the assay with Lolium perenne (LOLPE) [21], 20%; with Setaria faberi (SETFA) [22], 100%.

For `CCc1ccc(-c2ccc(Cl)c(C#N)c2)cc1C1=C(O)[C@H]2CC[C@H](C2)C1=O` (single isomer, unassigned) [Compound T34], the pest or weed control at 250 g/ha was determined as 60% in [1]; 0% in [2]; 0% in the assay with Avena fatua (AVEFA) [3]; 70% in [4]; 100% in the assay with Setaria faberi (SETFA) [5]; 70% in assay [6]. The pest or weed control at 250 g/ha in assay [7] was found to be 0%; with Avena fatua (AVEFA) [8] it was 70%; in [9], 100%; with Setaria faberi (SETFA) [10], 90%; in [11], 40%; with Avena fatua (AVEFA) [12] it was 40%. For the same compound, the pest or weed control at 250 g/ha in [13] was determined as 90%; in assay [14], 90%; with Lolium perenne (LOLPE) [15] it was 40%; in the assay with Setaria faberi (SETFA) [16], 90%. The pest or weed control at 125 g/ha in assay [17] was found to be 0%; in the assay on Avena fatua (AVEFA) [18], 10%; in [19] it was 40%; in assay [20], 80%; in the assay on Lolium perenne (LOLPE) [21], 0%; in the assay on Setaria faberi (SETFA) [22], 40%.

In the case of `CCc1ccc(-c2ccc(Cl)c(Cl)c2)cc1C1=C(O)[C@H]2CC[C@H](C2)C1=O` (single isomer, unassigned) [Compound T35], the pest or weed control at 250 g/ha in assay [1] worked out at 20%; in assay [2] it was 0%; with Avena fatua (AVEFA) [3], 20%; in assay [4] it was 90%; in the assay on Setaria faberi (SETFA) [5] it was 90%; in assay [6], 40%. Besides, the pest or weed control at 250 g/ha in assay [7] turned out to be 0%; in the assay with Avena fatua (AVEFA) [8], 50%; in [9], 100%; in the assay with Setaria faberi (SETFA) [10], 100%; in [11], 10%; with Avena fatua (AVEFA) [12], 30%. In addition, the pest or weed control at 250 g/ha in [13] was determined as 70%; in [14], 50%; in the assay with Lolium perenne (LOLPE) [15], 20%; in the assay on Setaria faberi (SETFA) [16] it was 40%. For the same compound, the pest or weed control at 125 g/ha in [17] is 0%; in the assay with Avena fatua (AVEFA) [18] it was 10%; in assay [19] it was 70%; in [20] it was 80%; with Lolium perenne (LOLPE) [21] it was 20%; with Setaria faberi (SETFA) [22] it was 70%.

Consider `CCc1ccc(-c2ccc(Cl)c(F)c2)cc1C1=C(O)[C@H]2CC[C@H](C2)C1=O` (single isomer, unassigned) [Compound T36], for which the pest or weed control at 250 g/ha was found to be 70% in [1]; 0% in assay [2]; 50% in the assay with Avena fatua (AVEFA) [3]; 100% in assay [4]; 100% with Setaria faberi (SETFA) [5]; 90% in [6]. Further, the pest or weed control at 250 g/ha in assay [7] came to 0%; with Avena fatua (AVEFA) [8], 100%; in assay [9], 100%; in the assay on Setaria faberi (SETFA) [10], 100%; in [11], 70%; in the assay with Avena fatua (AVEFA) [12], 60%. In addition, the pest or weed control at 250 g/ha in assay [13] is 100%; in assay [14], 100%; with Lolium perenne (LOLPE) [15], 90%; in the assay with Setaria faberi (SETFA) [16], 90%. The pest or weed control at 125 g/ha in assay [17] came to 80%; with Avena fatua (AVEFA) [18], 100%; in assay [19], 100%; in assay [20], 100%; in the assay on Lolium perenne (LOLPE) [21], 30%; in the assay with Setaria faberi (SETFA) [22], 100%.

Regarding `CCc1ccc(-c2ccc(Cl)c(C(F)(F)F)c2)cc1C1=C(O)[C@H]2CC[C@H](C2)C1=O` (single isomer, unassigned) [Compound T37], the pest or weed control at 250 g/ha in assay [1] turned out to be 50%; in assay [2], 0%; with Avena fatua (AVEFA) [3], 0%; in assay [4], 90%; in the assay with Setaria faberi (SETFA) [5], 90%; in [6], 90%. The pest or weed control at 250 g/ha in assay [7] came out at 20%; with Avena fatua (AVEFA) [8] it was 90%; in assay [9] it was 100%; in the assay with Setaria faberi (SETFA) [10] it was 100%; in assay [11], 70%; with Avena fatua (AVEFA) [12], 60%. The pest or weed control at 250 g/ha in assay [13] stood at 90%; in [14] it was 100%; in the assay with Lolium perenne (LOLPE) [15], 40%; in the assay with Setaria faberi (SETFA) [16] it was 100%. Moreover, the pest or weed control at 125 g/ha in assay [17] was found to be 70%; with Avena fatua (AVEFA) [18] it was 90%; in [19], 100%; in assay [20] it was 100%; with Lolium perenne (LOLPE) [21], 30%; in the assay on Setaria faberi (SETFA) [22], 100%.

For `CCc1ccc(-c2ccc(F)c(Cl)c2)cc1C1=C(O)[C@H]2CC[C@H](C2)C1=O` (single isomer, unassigned) [Compound T39], the pest or weed control at 250 g/ha in [1] amounted to 50%; in assay [2], 20%; in the assay on Avena fatua (AVEFA) [3], 30%; in assay [4], 100%; with Setaria faberi (SETFA) [5], 100%; in [6] it was 60%. In addition, the pest or weed control at 250 g/ha in assay [7] came to 0%; in the assay with Avena fatua (AVEFA) [8], 30%; in assay [9], 100%; in the assay with Setaria faberi (SETFA) [10] it was 100%; in assay [11], 70%; with Avena fatua (AVEFA) [12], 40%. The pest or weed control at 250 g/ha (in assay [13]; in assay [14]; in the assay on Lolium perenne (LOLPE) [15]; in the assay on Setaria faberi (SETFA) [16]) was 90% each time. Besides, the pest or weed control at 125 g/ha in [17] came out at 0%; with Avena fatua (AVEFA) [18] it was 20%; in assay [19] it was 80%; in assay [20], 80%; with Lolium perenne (LOLPE) [21] it was 10%; in the assay with Setaria faberi (SETFA) [22], 70%.
